From patent publication US11814367B2, “Inhibitors of glycogen synthase 1 (GYS1) and methods of use thereof” (Maze Therapeutics, Inc., priority 2021, dated 2023)

Biological target: hGYS1 enzyme (recombinant hGYS1/GN1 protein) (Homo sapiens (Human), UniProt P13807)
Assay: GYS1 coupled enzyme assay (PK/LDH)
Assay type: biochemical
Conditions: hGYS1/GN1 50 nM, UDP-Glucose 0.8 mM, G6P 1 mM; geometric mean of at least 2 runs
Description: The GYS1 coupled enzyme assay is a kinetic biochemical assay that indirectly quantifies the rate of glycogen synthesis by coupling the conversion of GYS1 substrate UDP-glucose into UDP with downstream enzymatic reactions. UDP is released from UDP-glucose as glucose monomers are linked into the growing glycogen strand by GYS1. The coupled assay then proceeds with pyruvate kinase utilizing UDP and phospho(enol)pyruvate (PEP) to form pyruvate. Lactate dehydrogenase then converts pyruvate and NADH into lactate and NAD+. Oxidation of NADH to NAD+ can be measured continuously with a plate reader by quantifying the decrease in NADH absorbance at 340 nm over time.
Compounds that inhibit the hGYS1 enzyme and, subsequently, the downstream conversion of NADH to NAD+, were tested using assay ready plates (black, clear bottom 384 well plates) in a final DMSO reaction volume of 2.5% DMSO. The Assay Buffer contained 50 mM Tris pH 7.5, 2 mM MgCl2, and 100 mM KCl. Fresh stocks of BSA at a final concentration of 0.02% and TCEP at 1 mM were added before splitting buffer into hGYS1 buffer and substrate buffer. To the hGYS1 buffer, rabbit liver glycogen was added at a final concentration of 0.2% glycogen. Glucose-6-Phosphate was added at 1 mM, recombinant hGYS1/GN1 protein was added at 50 nM to the substrate buffer, phosphoenolpyruvate (PEP) was added at 2 mM, UDP-Glucose was added at 0.8 mM, NADH) was added at 0.6 mM, and Pyruvate Kinase/Lactate Dehydrogenase was added at 20 units/mL. The reaction was initiated by mixing hGYS1 buffer and substrate buffer at a 1:1 ratio. Both buffers were plated using a liquid dispensing device with hGYS1 buffer plated first followed by the substrate buffer. Plates were spun briefly to eliminate air bubbles and are immediately read in continuous mode at an absorbance of 340 nm, for 10 time points in one-minute increments, for a total of 10 minutes. The slope from these 10 time points was normalized to the positive and negative control wells. The duplicate % inhibition values are then averaged and fit to a Hill equation for dose response according to the Levenberg-Marquardt algorithm with the Hill equation maximum set to 100 and the minimum set to 0.
Unless otherwise specified, IC50 values are reported as the geometric mean of at least 2 assay runs on separate days. Each run represents the average of a technical replicate, where each compound was assayed twice in the same plate. […] A superscript “#” symbol in Table 2 indicates results from a single assay run.

Sequence of hGYS1 enzyme (recombinant hGYS1/GN1 protein) (P13807 whole entry): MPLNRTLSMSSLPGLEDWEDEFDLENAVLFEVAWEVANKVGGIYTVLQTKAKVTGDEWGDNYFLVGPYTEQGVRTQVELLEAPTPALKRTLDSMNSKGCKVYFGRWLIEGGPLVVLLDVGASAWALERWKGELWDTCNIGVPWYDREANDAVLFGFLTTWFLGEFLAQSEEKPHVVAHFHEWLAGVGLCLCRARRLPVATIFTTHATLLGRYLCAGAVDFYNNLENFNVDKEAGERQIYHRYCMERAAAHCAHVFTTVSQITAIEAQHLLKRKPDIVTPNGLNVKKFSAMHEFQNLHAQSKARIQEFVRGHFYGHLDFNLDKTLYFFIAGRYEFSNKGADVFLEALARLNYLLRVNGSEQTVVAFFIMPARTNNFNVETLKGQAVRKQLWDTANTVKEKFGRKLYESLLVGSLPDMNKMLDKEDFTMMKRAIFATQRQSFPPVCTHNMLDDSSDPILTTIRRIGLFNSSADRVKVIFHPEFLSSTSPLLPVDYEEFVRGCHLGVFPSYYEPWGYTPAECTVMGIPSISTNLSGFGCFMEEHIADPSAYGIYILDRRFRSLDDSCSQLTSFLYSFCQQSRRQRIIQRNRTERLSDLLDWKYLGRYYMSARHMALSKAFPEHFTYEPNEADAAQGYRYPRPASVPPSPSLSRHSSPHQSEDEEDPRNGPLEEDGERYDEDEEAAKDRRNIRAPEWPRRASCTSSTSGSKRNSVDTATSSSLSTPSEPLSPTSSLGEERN
Sequence of hGYS1 enzyme (recombinant hGYS1/GN1 protein) (P46976 whole entry partner): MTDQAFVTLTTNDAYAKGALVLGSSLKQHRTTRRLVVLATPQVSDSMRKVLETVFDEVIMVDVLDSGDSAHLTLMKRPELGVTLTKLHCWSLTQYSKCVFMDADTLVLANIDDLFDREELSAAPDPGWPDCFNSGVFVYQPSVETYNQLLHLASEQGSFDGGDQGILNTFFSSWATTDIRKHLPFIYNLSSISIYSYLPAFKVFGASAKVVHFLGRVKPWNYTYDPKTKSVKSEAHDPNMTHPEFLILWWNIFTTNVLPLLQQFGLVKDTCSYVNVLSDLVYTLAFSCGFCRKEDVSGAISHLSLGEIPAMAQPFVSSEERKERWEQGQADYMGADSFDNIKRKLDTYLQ

Row | IC50 [µM] | Structure (SMILES)
1 | 1 | CC(C)c1ccc([C@@H](NC(=O)[C@@H]2C[C@@H](F)CN2C(=O)c2cccc(-n3cncn3)c2)c2ccccc2)cc1 [Compound 123, (2S,4R)-4-fluoro-N-[(S)-phenyl[4-(propan-2-yl)phenyl]methyl]-1-[3-(1H-1,2,4-triazol-1-yl)benzoyl]pyrrolidine-2-carboxamide]
2 | 0.318 | Cc1cnn(C(C)C(=O)N2C[C@H](F)C[C@H]2C(=O)N[C@@H](c2ccccc2)c2ccc(C(C)C)cc2)c1 (stereo partly drawn) [Compound 127, (2S,4R)-4-fluoro-1-[2-(4-methyl-1H-pyrazol-1-yl)propanoyl]-N-[(S)-phenyl[4-(propan-2-yl)phenyl]methyl]pyrrolidine-2-carboxamide]
3 | 0.563 | CC(C)c1ccc([C@@H](NC(=O)[C@@H]2C[C@@H](F)CN2C(=O)c2cc3n(n2)CCCNC3=O)c2ccccc2)cc1 [Compound 131, (2S,4R)-4-fluoro-1-{4-oxo-4H,5H,6H,7H,8H-pyrazolo[1,5-a][1,4]diazepine-2-carbonyl}-N-[(S)-phenyl[4-(propan-2-yl)phenyl]methyl]pyrrolidine-2-carboxamide]
4 | 0.554 | CC(=O)N1C[C@]2(C(=O)N3C[C@H](F)C[C@H]3C(=O)N[C@@H](c3ccccc3)c3ccc(C(C)C)cc3)CC1CO2 [Compound 150, (2S,4R)-1-[(1S)-5-acetyl-2-oxa-5-azabicyclo[2.2.1]heptane-1-carbonyl]-4-fluoro-N-[(S)-phenyl[4-(propan-2-yl)phenyl]methyl]pyrrolidine-2-carboxamide]
5 | 0.412 | CC(=O)N1CCC[C@H](C(=O)N2C[C@H](F)C[C@H]2C(=O)N[C@@H](c2ccccc2)c2ccc(C(C)C)cc2)C1 [Compound 153, (2S,4R)-1-[(3S)-1-acetylpiperidine-3-carbonyl]-4-fluoro-N-[(S)-phenyl[4-(propan-2-yl)phenyl]methyl]pyrrolidine-2-carboxamide]
6 | 0.361 | CC(=O)N1C[C@@H]2[C@@H](C(=O)N3C[C@H](F)C[C@H]3C(=O)N[C@@H](c3ccccc3)c3ccc(C(C)C)cc3)CO[C@@H]2C1 [Compound 165, (2S,4R)-1-[(3R,3aS,6aS)-5-acetyl-hexahydro-2H-furo[2,3-c]pyrrole-3-carbonyl]-4-fluoro-N-[(S)-phenyl[4-(propan-2-yl)phenyl]methyl]pyrrolidine-2-carboxamide]
7 | 0.439 | CC(=O)N1CCCC(C)(C(=O)N2C[C@H](F)C[C@H]2C(=O)N[C@@H](c2ccccc2)c2ccc(C(C)C)cc2)C1 (stereo partly drawn) [Compound 168, (2S,4R)-1-(1-acetyl-3-methylpiperidine-3-carbonyl)-4-fluoro-N-[(S)-phenyl[4-(propan-2-yl)phenyl]methyl]pyrrolidine-2-carboxamide]

Second part, the compound before the results:

Row | Structure (SMILES) | IC50 [µM]
8 | CC(=O)N1CC(CC(=O)N2C[C@H](F)C[C@H]2C(=O)N[C@@H](c2ccccc2)c2ccc(C(C)C)cc2)Oc2ccccc21 (stereo partly drawn) [Compound 116, (2S,4R)-1-[2-(4-acetyl-3,5-dihydro-2H-1,4-benzoxazin-2-yl)acetyl]-4-fluoro-N-[(S)-phenyl[4-(propan-2-yl)phenyl]methyl]pyrrolidine-2-carboxamide] | 0.121
9 | CC(Cn1cncn1)C(=O)N1C[C@H](F)C[C@H]1C(=O)N[C@@H](c1ccccc1)c1ccc(C(C)C)cc1 (stereo partly drawn) [Compound 120, (2S,4R)-4-fluoro-1-[2-methyl-3-(1H-1,2,4-triazol-1-yl)propanoyl]-N-[(S)-phenyl[4-(propan-2-yl)phenyl]methyl]pyrrolidine-2-carboxamide] | 0.343
10 | CC(C)c1ccc([C@@H](NC(=O)[C@@H]2C[C@@H](F)CN2C(=O)c2ccc3c(c2)NC(=O)CO3)c2ccccc2)cc1 [Compound 122, (2S,4R)-4-fluoro-1-(3-oxo-3,4-dihydro-2H-1,4-benzoxazine-6-carbonyl)-N-[(S)-phenyl[4-(propan-2-yl)phenyl]methyl]pyrrolidine-2-carboxamide] | 0.989
11 | CC(Oc1cccnc1)C(=O)N1C[C@H](F)C[C@H]1C(=O)N[C@@H](c1ccccc1)c1ccc(C(C)C)cc1 (stereo partly drawn) [Compound 124, (2S,4R)-4-fluoro-N-[(S)-phenyl[4-(propan-2-yl)phenyl]methyl]-1-[2-(pyridin-3-yloxy)propanoyl]pyrrolidine-2-carboxamide] | 0.078
12 | CC(Cc1ccccn1)C(=O)N1C[C@H](F)C[C@H]1C(=O)N[C@@H](c1ccccc1)c1ccc(C(C)C)cc1 (stereo partly drawn) [Compound 132, (2S,4R)-4-fluoro-1-[2-methyl-3-(pyridin-2-yl)propanoyl]-N-[(S)-phenyl[4-(propan-2-yl)phenyl]methyl]pyrrolidine-2-carboxamide] | 0.099
13 | CC(C)c1ccc([C@@H](NC(=O)[C@@H]2C[C@@H](F)CN2C(=O)C2CCC3CCC(=O)N3C2)c2ccccc2)cc1 (stereo partly drawn) [Compound 139, (2S,4R)-4-fluoro-1-(3-oxo-octahydroindolizine-6-carbonyl)-N-[(S)-phenyl[4-(propan-2-yl)phenyl]methyl]pyrrolidine-2-carboxamide] | 0.357
14 | CC(=O)N1CC(F)(C(=O)N2C[C@H](F)C[C@H]2C(=O)N[C@@H](c2ccccc2)c2ccc(C(C)C)cc2)C1 [Compound 143, (2S,4R)-1-(1-acetyl-3-fluoroazetidine-3-carbonyl)-4-fluoro-N-[(S)-phenyl[4-(propan-2-yl)phenyl]methyl]pyrrolidine-2-carboxamide] | 0.323
15 | CC(=O)N1C[C@H]2C[C@@]2(C(=O)N2C[C@H](F)C[C@H]2C(=O)N[C@@H](c2ccccc2)c2ccc(C(C)C)cc2)C1 [Compound 148, (2S,4R)-1-[(1S,5S)-3-acetyl-3-azabicyclo[3.1.0]hexane-1-carbonyl]-4-fluoro-N-[(S)-phenyl[4-(propan-2-yl)phenyl]methyl]pyrrolidine-2-carboxamide] | 0.344
16 | CC(=O)N1CCC(C)(C(=O)N2C[C@H](F)C[C@H]2C(=O)N[C@@H](c2ccccc2)c2ccc(C(C)C)cc2)C1 (stereo partly drawn) [Compound 152, (2S,4R)-1-(1-acetyl-3-methylpyrrolidine-3-carbonyl)-4-fluoro-N-[(S)-phenyl[4-(propan-2-yl)phenyl]methyl]pyrrolidine-2-carboxamide] | 0.132
17 | CC(=O)N1CCC2(CC2C(=O)N2C[C@H](F)C[C@H]2C(=O)N[C@@H](c2ccccc2)c2ccc(C(C)C)cc2)C1 (stereo partly drawn) [Compound 156, (2S,4R)-1-{5-acetyl-5-azaspiro[2.4]heptane-1-carbonyl}-4-fluoro-N-[(S)-phenyl[4-(propan-2-yl)phenyl]methyl]pyrrolidine-2-carboxamide] | 0.304
18 | CC(=O)N1C2CCC1[C@@H](C(=O)N1C[C@H](F)C[C@H]1C(=O)N[C@@H](c1ccccc1)c1ccc(C(C)C)cc1)C2 (stereo partly drawn) [Compound 157, (2S,4R)-1-[(2S)-7-acetyl-7-azabicyclo[2.2.1]heptane-2-carbonyl]-4-fluoro-N-[(S)-phenyl[4-(propan-2-yl)phenyl]methyl]pyrrolidine-2-carboxamide] | 0.392
19 | CC(=O)N1CCO[C@@H](C)[C@@H]1C(=O)N1C[C@H](F)C[C@H]1C(=O)N[C@@H](c1ccccc1)c1ccc(C(C)C)cc1 [Compound 159, (2S,4R)-1-[(2S,3R)-4-acetyl-2-methylmorpholine-3-carbonyl]-4-fluoro-N-[(S)-phenyl[4-(propan-2-yl)phenyl]methyl]pyrrolidine-2-carboxamide] | 0.74
20 | COC1(CC(=O)N2C[C@H](F)C[C@H]2C(=O)N[C@@H](c2ccccc2)c2ccc(C(C)C)cc2)CN(C(C)=O)C1 [Compound 161, (2S,4R)-1-[2-(1-acetyl-3-methoxyazetidin-3-yl)acetyl]-4-fluoro-N-[(S)-phenyl[4-(propan-2-yl)phenyl]methyl]pyrrolidine-2-carboxamide] | 0.374
21 | CC(=O)N1CC2(CC(C(=O)N3C[C@H](F)C[C@H]3C(=O)N[C@@H](c3ccccc3)c3ccc(C(C)C)cc3)CO2)C1 (stereo partly drawn) [Compound 164, (2S,4R)-1-{2-acetyl-5-oxa-2-azaspiro[3.4]octane-7-carbonyl}-4-fluoro-N-[(S)-phenyl[4-(propan-2-yl)phenyl]methyl]pyrrolidine-2-carboxamide] | 0.467
22 | CC(=O)N1CC[C@@H](C)[C@H](C(=O)N2C[C@H](F)C[C@H]2C(=O)N[C@@H](c2ccccc2)c2ccc(C(C)C)cc2)C1 [Compound 170, (2S,4R)-1-[(3S,4R)-1-acetyl-4-methylpiperidine-3-carbonyl]-4-fluoro-N-[(S)-phenyl[4-(propan-2-yl)phenyl]methyl]pyrrolidine-2-carboxamide] | 0.306
23 | CC(=O)N1C[C@H]2CC[C@@H](C1)[C@@H]2C(=O)N1C[C@H](F)C[C@H]1C(=O)N[C@@H](c1ccccc1)c1ccc(C(C)C)cc1 [Compound 173, (2S,4R)-1-[(1R,5S,8S)-3-acetyl-3-azabicyclo[3.2.1]octane-8-carbonyl]-4-fluoro-N-[(S)-phenyl[4-(propan-2-yl)phenyl]methyl]pyrrolidine-2-carboxamide] | 0.844
